The results in this text go back to patent US20040248958A1, “Heterocyclic amide derivatives” (priority 2001, published 2004).

The nature of this data set: logP determination by HPLC on reversed-phase column (EEC Directive 79/831 Annex V.A8). The class given is physicochemical. Conditions: reversed-phase HPLC column (C18), preparation examples. As for the experimental part: The logP values indicated were determined in accordance with EEC Directive 79/831 Annex V.A8 by means of HPLC (High Performance Liquid Chromatography) on a reversed-phase column (C 18). Temperature: 43° C. (a) Eluents for determination in the acidic range: 0.1% aqueous phosphoric acid, acetonitriie; linear gradient from 10% acetonitrile to 90% acetonitrile. (b) Eluents for determination in the neutral range: 0.01 molar aqueous phosphate buffer solution, acetonitrile; linear gradient from 10% acetonitrile to 90% acetonitrile.

[1] abbreviates: pH 2.3, HPLC C18, 43° C., read-out: logP (pH 2.3).

Like-named read-outs stand apart in the source and are kept apart here.

As for `CCc1ccc(C(=O)Nn2c(-c3cc(C)cc(C)c3)nc(C)c2C)cc1` [Example I-1], the chromatographic logP under setting [1] is 1.97.

On to `Cc1ccc(C(=O)Nn2c(-c3ccccc3)nc(C)c2C)cc1` [Example I-2], for which, under “pH 7.5, HPLC C18, 43° C., read-out: logP (pH 7.5)”, the chromatographic logP was found to be 2.17.

As for `Cc1cc(C)cc(-c2nc(C)c(C)n2N)c1` [II-1], the chromatographic logP under setting [1] is 0.96.

Regarding `Cc1ccc(S(=O)(=O)Nn2c(-c3cc(C)cc(C)c3)nc(C)c2C)cc1` [IV-1], the chromatographic logP under setting [1] worked out at 1.69.
